Laboratory results from patent publication US20090030086A1, “ANTIMICROBIAL AGENTS” (priority 2005, published 2009).
≈ marks a conversion by molar mass, not a printed value.

Key:
P. acnes PRP-010 = experiment: Disc diffusion assay (DDA); type: cell-based, Propionibacterium acnes; conditions: resistance MLSK, 200 μg per disc
Protocol: Other propionibacterial strains were also tested, as described in Example 4 below. These included certain antibiotic resistant propionibacteria, such as the two P. acnes strains designated PRP-010 and PRP-039 which are resistant respectively to macrolides-lincosamides-streptogramins-ketolides (MLSK) and to macrolides-lincosamides-streptogramins (MLS) and tetracycline—in other words, PRP-010 is resistant to erythromycin and clindamycin, and PRP-039 to erythromycin, clindamycin and tetracycline.
(§1) The Propionibacterium spp organisms were cultured and maintained on Wilkins-Chalgren Anaerobe Medium (agar and broth) at pH 6.0; cultures were incubated anaerobically at 37° C. for 72 hours.
A sterile paper disc was impregnated with a sample of the test compound and a minimum of 30 minutes allowed for the solvents to evaporate as far as possible. The disc was then placed on an agar plate onto which the test micro-organism had been inoculated. The plate was then incubated under the conditions described above, following which it was examined visually for signs of bacterial growth. […] The diameter of this zone of “inhibition” was measured using a ProtoCOL™ automated zone sizer (Synbiosis, Cambridge, UK). […]
(§2) The area of the zone of inhibition was calculated from the measured zone diameter (D) using the formula π(D/2)^2. […]

S. aureus ATCC 29213 [1] = experiment: MBC assay; type: cell-based, Staphylococcus aureus
Summary of the method: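 Organism grown aerobically on Mueller-Hinton agar/broth (pH 7.2) for 24 hours at 37° C. After the MIC step, samples plated on non-selective agar under those conditions; lowest concentration with no visible growth taken as the MBC.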

H. influenzae ATCC 49247 [2] = experiment: MIC assay; type: cell-based; conditions: Haemophilus influenzae, ATCC49247
Description: 5. Haemophilus influenzae ATCC 49247—a member of the genus Haemophilus, these organisms are Gram-negative bacilli which grow under aerobic or anaerobic conditions but require media with special supplements for laboratory culture. Strains of H. influenzae may be capsulated or non-capsulated. The capsulate strains are divided into serotypes, (designated b,c,d,e,f), on the basis of capsular antigens. The serotype H. influenzae type b is an important cause of invasive infections in humans, particularly in young children. The non-capsulate strains are common commensals in the upper respiratory tract, although there are also some healthy carriers of the type b strain. In the context of skin and topical treatments, H. influenzae can be a cause of cellulitis and otitis media (middle ear infection), again particularly in young children. […]
This is a standard international method for quantitatively assessing the antimicrobial activity of a compound in a liquid medium. […]
The wells were inoculated with a liquid suspension of freshly grown micro-organism and incubated under the conditions described above. […] The MIC value was recorded as the lowest concentration of test compound required to inhibit microbial growth, i.e., the lowest concentration for which the liquid in the well remained clear. […]

P. acnes PRP-068 = experiment: Disc diffusion assay (DDA); type: cell-based, Propionibacterium acnes; conditions: resistance Ery, 200 μg per disc
Protocol: as §1
(§3) A sterile paper disc was impregnated with a sample of the test compound and a minimum of 30 minutes allowed for the solvents to evaporate as far as possible. The disc was then placed on an agar plate onto which the test micro-organism had been inoculated. The plate was then incubated under the conditions described above, following which it was examined visually for signs of bacterial growth. If the test compound had antimicrobial activity, a circular zone of no growth would be obtained around the disc. The diameter of this zone of “inhibition” was measured using a ProtoCOL™ automated zone sizer (Synbiosis, Cambridge, UK). In general, a greater diameter and/or area of the zone of inhibition indicates a greater antimicrobial activity in the relevant test compound, although other factors such as test compound mobility through the agar gel may also influence the result.
(§4) The area of the zone of inhibition was calculated from the measured zone diameter (D) using the formula π(D/2)^2.
(§5) For the DDA assays, 200 μg of TBHQ was loaded onto each disc. The solvent used for the TBHQ was ethanol.

P. acnes PRP-102 = experiment: Disc diffusion assay (DDA); type: cell-based, Propionibacterium acnes; conditions: resistance Tet/MLS, 200 μg per disc
Protocol: as §1, §3, §4, §5

P. acnes PRP-101 = experiment: Disc diffusion assay (DDA); type: cell-based, Propionibacterium acnes; conditions: resistance Tet/MLS, 200 μg per disc
Protocol: as §1, §3, §4, §5

P. acnes PRP-008 = experiment: Disc diffusion assay (DDA); type: cell-based, Propionibacterium acnes; conditions: resistance Clin, 200 μg per disc
Protocol: as §1, §3, §4, §5

P. acnes PRP-004 = experiment: Disc diffusion assay (DDA); type: cell-based, Propionibacterium acnes; conditions: resistance Tet, 200 μg per disc
Protocol: as §1, §3, §4, §5

H. influenzae ATCC 49247 [3] = experiment: Disc diffusion assay (DDA); type: cell-based, Haemophilus influenzae; conditions: 200 μg per disc
Protocol: (§6) The H. influenzae strain was cultured and maintained on Haemophilus Test Medium (HTM) agar/broth (the composition of which is as described in NCCLS M7-A6 Vol. 23 No. 2); cultures were incubated in a CO2 atmosphere at 37° C. for 24 hours.
as §3, §4
The activity of TBHQ against three other bacterial strains was investigated using MIC, MBC and DDA assays as described above. […]

S. aureus ATCC 29213 [4] = experiment: Disc diffusion assay (DDA); type: cell-based, Staphylococcus aureus; conditions: Staphylococcus aureus, ATCC29213; S. aureus ATCC 29213; unsupplemented agar; 200 μg per disc (thymoquinone 50 μg, 2,6-dimethoxy-p-benzoquinone 100 μg); read-out: DDA (diameter of zone of inhibition)
Summary of the method: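 Paper discs loaded with test compound (usually 200 μg/disc), solvent evaporated ≥30 min, placed on inoculated Mueller-Hinton agar pH 7.2. Incubated aerobically at 37 °C for 24 h; inhibition zone diameter measured and area calculated as π(D/2)^2.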

S. pyogenes ATCC 12344 = experiment: Disc diffusion assay (DDA); type: cell-based, Streptococcus pyogenes; conditions: 200 μg per disc
Protocol: The S. pyogenes strain was cultured and maintained on Mueller-Hinton agar with 5% v/v defibrinated horse blood, and grown in Mueller-Hinton broth supplemented with 5% lysed horse blood (lysed horse blood was prepared as described in the NCCLS M7-A6 Vol. 23 No. 2); cultures were incubated aerobically at 37° C. for 24 hours.
as §3, §2

H. influenzae ATCC 49247 [5] = experiment: MBC assay; type: cell-based, Haemophilus influenzae
Protocol: as §6
This assay, normally carried out after an MIC assay, determines the minimum concentration of a compound that is lethal to the micro-organism being tested.
These samples were then individually sub-cultured on non-selective agar medium, under the incubation conditions described above. Following incubation they were examined visually for bacterial growth.
The activity of TBHQ against three other bacterial strains was investigated using MIC, MBC and DDA assays as described above. For the DDA assays, 200 μg of TBHQ was loaded onto each disc, using ethanol as the solvent.

## CC(C)(C)c1cc(O)ccc1O [TBHQ, 2-t-butyl hydroquinone]
P. acnes PRP-010
  DDA: 18.71 mm
S. aureus ATCC 29213 [1]
  MIC/MBC ratio: 1
H. influenzae ATCC 49247 [2]
  MIC: 15.6 µg/mL (≈ 93.9 µM)
P. acnes PRP-068
  DDA: 20.89 mm
P. acnes PRP-102
  DDA: 23.80 mm
P. acnes PRP-101
  DDA: 0.0 mm
P. acnes PRP-008
  DDA: 14.47 mm
P. acnes PRP-004
  DDA: 30.32 mm
H. influenzae ATCC 49247 [3]
  DDA: 36.33 mm
S. aureus ATCC 29213 [4]
  zone of inhibition at 200 µg/disc: 41.8 mm
S. pyogenes ATCC 12344
  DDA: 50.67 mm
H. influenzae ATCC 49247 [5]
  MIC/MBC ratio: 1
H. influenzae ATCC 49247 [5]; Haemophilus influenzae, ATCC49247
  MBC: 15.6 µg/mL (≈ 93.9 µM)
